Results taken from patent US20260317319A1, “NOVEL ERGOLINES AND METHODS OF TREATING MOOD DISORDERS” (Gilgamesh Pharma Inc., priority 2023, published 2026).
Like-named read-outs stand apart in the source and are kept apart here.

How the values were obtained:
[1] = target: T1, 5-HT2B receptor (Homo sapiens, UniProt P41595); experiment: cell-based; assay type: cell-based; conditions: HEK293, agonist, Ca2+ flux, HEK293, max dose; read-out: 5-HT2B % Act @ Max Dose
T1 construct: expressed in transfected cells; host or cells: HEK293, stably transfected
T1 sequence (P41595 whole entry): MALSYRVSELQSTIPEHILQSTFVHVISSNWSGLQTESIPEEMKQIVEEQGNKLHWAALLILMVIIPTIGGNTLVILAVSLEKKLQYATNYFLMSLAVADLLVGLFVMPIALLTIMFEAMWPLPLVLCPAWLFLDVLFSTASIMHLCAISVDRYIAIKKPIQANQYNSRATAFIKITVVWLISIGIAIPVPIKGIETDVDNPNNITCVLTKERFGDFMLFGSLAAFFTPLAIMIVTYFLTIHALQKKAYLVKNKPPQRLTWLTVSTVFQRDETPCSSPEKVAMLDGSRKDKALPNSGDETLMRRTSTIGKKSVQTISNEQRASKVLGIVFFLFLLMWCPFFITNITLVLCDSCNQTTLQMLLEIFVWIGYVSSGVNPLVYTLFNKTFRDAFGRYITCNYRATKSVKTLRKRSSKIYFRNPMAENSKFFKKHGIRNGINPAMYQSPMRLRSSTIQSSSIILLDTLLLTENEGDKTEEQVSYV
How it was run: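 FLIPR Tetra fluorescence read-out of calcium flux after compound addition. Receptor-expressing stable lines were used (HEK293 for 2A/2B; CHO with Gα15 for 1A), dye-loaded with Fluo-4 Direct and 2.5 mM final probenecid, 50 min at 37 °C.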

[2] = target: T2, 5-HT2A receptor (Homo sapiens, UniProt P28223); experiment: cell-based; assay type: cell-based; design: expressed in transfected cells; host or cells: HEK293, stably transfected; conditions: HEK293, agonist, Ca2+ flux, HEK293, max dose; read-out: 5-HT2A % Act @ Max Dose
T2 sequence (P28223 whole entry): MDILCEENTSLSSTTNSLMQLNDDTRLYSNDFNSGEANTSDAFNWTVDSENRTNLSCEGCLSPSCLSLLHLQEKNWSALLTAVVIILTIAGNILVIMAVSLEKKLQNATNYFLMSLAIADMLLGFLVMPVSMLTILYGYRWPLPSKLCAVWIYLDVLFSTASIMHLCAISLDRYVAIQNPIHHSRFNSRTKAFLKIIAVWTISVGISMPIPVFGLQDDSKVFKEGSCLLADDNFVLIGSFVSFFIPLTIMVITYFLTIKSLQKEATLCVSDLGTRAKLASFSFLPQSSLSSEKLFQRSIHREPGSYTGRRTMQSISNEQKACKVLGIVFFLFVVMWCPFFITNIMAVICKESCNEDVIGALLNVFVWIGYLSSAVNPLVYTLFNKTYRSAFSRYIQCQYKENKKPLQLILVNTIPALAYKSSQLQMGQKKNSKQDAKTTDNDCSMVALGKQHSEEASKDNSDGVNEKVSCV
How it was run: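 Agonist activity measured by FLIPR Ca2+ flux in stably transfected cells: HEK293 for 5-HT2A and 5-HT2B, CHO co-expressing Gα15 for 5-HT1A. Cells loaded with Fluo-4 Direct dye plus probenecid (2.5 mM final) for 50 min at 37 °C, 5% CO2; compounds added and fluorescence read on FLIPR Tetra.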

[3] = in vitro; assay type: in vitro ADME, mouse; conditions: MLM (male CD-1) 0.50 mg/mL, NADPH 1 mM, 1 μM compound, pH 7.4, 37° C., 60 min
Source text: MLM Stability Pooled MLM from male CD-1 mice (BIOIVT M00501) were used.

[4] = in vitro; assay type: in vitro ADME, human; conditions: HLM 0.50 mg/mL, NADPH 1 mM, 1 μM compound, pH 7.4, 37° C., 60 min
[5] = target: T3, 5-HT1B receptor (Homo sapiens, UniProt P28222); experiment: cAMP accumulation functional assay at 5-HT1B; assay type: cell-based; conditions: agonist, cAMP accumulation, max dose; read-out: 5-HT1B % Act @ Max Dose
T3 construct: expressed in transfected cells
T3 sequence (P28222 whole entry): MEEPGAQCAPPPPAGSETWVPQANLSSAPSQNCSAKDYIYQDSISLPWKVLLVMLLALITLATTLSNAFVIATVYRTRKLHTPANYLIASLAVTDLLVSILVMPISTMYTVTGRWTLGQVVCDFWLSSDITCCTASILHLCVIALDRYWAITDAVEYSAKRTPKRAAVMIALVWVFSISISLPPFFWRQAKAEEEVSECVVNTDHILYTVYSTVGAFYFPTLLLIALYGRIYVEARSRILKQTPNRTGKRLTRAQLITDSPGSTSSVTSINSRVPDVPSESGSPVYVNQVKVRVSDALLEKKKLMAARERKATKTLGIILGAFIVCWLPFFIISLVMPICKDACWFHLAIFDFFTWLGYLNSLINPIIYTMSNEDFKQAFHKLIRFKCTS
How it was run: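 Agonist activity measured as cAMP accumulation in cells stably transfected with human 5-HT1B. Cells incubated 60 min at RT, then detection reagent added for a further 60 min at RT before plate reading.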

[6] = in vitro; assay type: in vitro ADME, rat; conditions: RLM (male Sprague-Dawley) 0.50 mg/mL, NADPH 1 mM, 1 μM compound, pH 7.4, 37° C., 60 min
Source text: RLM Stability Pooled RLM from male Sprague-Dawley rats (Xenotech R1000) were used.

[7] = target: T4, Alpha1A adrenergic receptor (Homo sapiens, UniProt P35348); experiment: Ca2+ flux functional assay at Alpha1A; assay type: cell-based; conditions: agonist, Ca2+ flux, max dose; read-out: Alpha 1A % Act @ Max Dose
T4 construct: expressed in transfected cells
T4 sequence (P35348 1-466): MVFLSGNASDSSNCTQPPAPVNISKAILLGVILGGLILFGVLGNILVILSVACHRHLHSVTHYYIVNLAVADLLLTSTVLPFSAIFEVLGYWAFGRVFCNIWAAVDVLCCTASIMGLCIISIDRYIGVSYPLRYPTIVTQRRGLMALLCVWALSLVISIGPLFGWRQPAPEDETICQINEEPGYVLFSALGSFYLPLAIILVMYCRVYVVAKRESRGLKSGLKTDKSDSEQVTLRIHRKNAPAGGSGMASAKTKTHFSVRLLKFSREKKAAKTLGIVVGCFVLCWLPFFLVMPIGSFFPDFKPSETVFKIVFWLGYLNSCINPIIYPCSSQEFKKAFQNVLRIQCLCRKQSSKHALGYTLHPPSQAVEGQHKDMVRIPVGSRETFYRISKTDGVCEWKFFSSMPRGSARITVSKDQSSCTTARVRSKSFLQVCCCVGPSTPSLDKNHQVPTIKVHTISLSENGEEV
Description: Disclosed compounds were tested for agonist activity at several adrenergic (Alpha1A and Alpha2A) and dopamine (D1 and D2) receptor subtypes using Ca^2+ flux functional assays, with the results summarized in Table 6. Selectivity for the 5-HT2A receptor over these other targets varied depending on the specific target and compound.
Functional Assays at Adrenergic and Dopamine Receptors. Agonist activity at Alpha1A, Alpha2A, D1, and D2 receptors was determined using a FLIPR Ca^2+ flux assay at WuXi AppTec (Hong Kong) Limited according to their standard protocols. Briefly, stably transfected cells expressing the receptor of interest were grown and plated in a 384 well plate and incubated at 37° C. and 5% CO2 overnight. A solution of 250 mM probenecid in 1 mL FLIPR assay buffer was prepared fresh. This was combined with a fluorescent dye (Fluo-4 Direct™) to make a final assay concentration of 2.5 mM. Compounds were diluted 1:3.16 for 10 points and 750 nL was added to a 384 well compound plate using ECHO along with 30 μL assay buffer. The fluorescent dye was then added to the assay plate along with assay buffer to a final volume of 40 μL. The cell plate was incubated for 50 min at 37° C. and 5% CO2 and placed into the FLIPR Tetra along with the compound plate. 10 μL of references and compounds were then transferred from the compound plate into the cell plate and the fluorescent signal was read.

[8] = target: T5, 5-HT1A receptor (Homo sapiens, UniProt P08908); experiment: cell-based; conditions: CHO, agonist, Ca2+ flux, CHO cells with Gα15, max dose; read-out: 5-HT1A % Act @ Max Dose
T5 construct: expressed in transfected cells; host or cells: CHO cells, stably transfected
T5 sequence (P08908 1-422): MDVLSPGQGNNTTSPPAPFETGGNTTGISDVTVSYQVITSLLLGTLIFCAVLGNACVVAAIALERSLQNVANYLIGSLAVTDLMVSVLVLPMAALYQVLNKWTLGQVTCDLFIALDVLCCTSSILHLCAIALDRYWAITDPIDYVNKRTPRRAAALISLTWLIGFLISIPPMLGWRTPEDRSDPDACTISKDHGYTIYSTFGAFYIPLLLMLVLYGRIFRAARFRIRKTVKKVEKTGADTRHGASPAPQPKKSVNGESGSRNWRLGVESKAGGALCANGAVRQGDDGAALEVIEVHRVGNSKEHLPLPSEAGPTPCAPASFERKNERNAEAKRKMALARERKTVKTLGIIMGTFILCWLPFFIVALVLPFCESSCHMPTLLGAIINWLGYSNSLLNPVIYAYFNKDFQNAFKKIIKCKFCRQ
How it was run: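 Using HEK293 lines for the 5-HT2 subtypes and Gα15-coupled CHO cells for 5-HT1A, compounds were tested as agonists. Fluorescent Ca2+ signal followed dye loading (Fluo-4 Direct, 2.5 mM final probenecid, 50 min, 37 °C).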

[9] = in vitro; assay type: in vitro ADME, human; conditions: for metabolised: human, microsomes, role: substrate, metabolite 83 formed in HLM, read-out: Metabolite Formation (percent formation of metabolite 83)
Description: The ability of deuteration in compound 68 to attenuate formation of metabolite 83 compared to the same transformation of the non-deuterated compound 18 was also determined.
HLM Stability. Pooled HLM from adult male and female donors (Corning 452117) were used.

[10] = target: T2, 5-HT2A receptor; experiment: biochemical; assay type: binding; design: expressed in transfected cells; host or cells: HEK293, stably transfected; conditions: [3H]ketanserin 1 nM; HEK293 stable cell line; 1 h, 25 °C
How it was run: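 Binding affinity comes from a [^3H]ketanserin radioligand assay run under literature-adapted conditions.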

[11] = tested on: Sprague Dawley rats; experiment: Forced swim test (FST) in rats; assay type: in vivo, rat; conditions: rat FST, dose 20 mg/kg, positive control; average of 3 independent experiments
Description: Compound 1 induced antidepressant-like effects in the forced swim test (FST) in rats with a 23.5-h pre-treatment time (FIG. 2).
Animals. Male Sprague Dawley rats, aged 9-10 weeks, were used in this experiment. Animals were housed in groups of 2 under controlled temperature (22±3° C.) and relative humidity (30-70%) conditions, with 12-hour light/dark cycles, and with ad libitum food and water. This study was carried out in strict accordance with the requirements of the Committee for the Purpose of Control and Supervision of Experiments on Animals (CPCSEA), India. All efforts were made to minimize suffering.
Forced Swim Test (FST). […] Rats were handled for about 2 min daily for the 5 days prior to the beginning of the experimental procedure. On the first day of the experiment (i.e., Day 0), post randomization, training swim sessions (Swim 1) were conducted between 12:00 and 18:00 h with all animals by placing rats in individual glass cylinders (46 cm tall×20 cm in diameter) containing 23-25° C. water 30 cm deep for 15 minutes. At the conclusion of Swim 1, animals were dried with paper towels, placed in heated drying cages for 15 minutes, and then returned to their home cages. Animals were then administered the appropriate drug or vehicle treatment(s), as described above. For clarity, a compound administration time of 23.5 h before Swim 2 means 0.5 h after the start of Swim 1 and 0.25 h after the completion of Swim 1 (i.e., immediately after return to the home cage). On Day 1 (i.e., 24 h after start of Swim 1), animals performed the test swim (Swim 2) for a period of 5 min but otherwise under the same conditions as Swim 1. During all swim sessions, the water was changed between each animal.
Behavioral scoring was conducted by observers who were blind to the treatment groups. Animals were continuously observed during Swim 2 and the total time spent engaging in the following behaviors was recorded: immobile, swimming, and climbing. A rat was judged to be immobile when it remained floating in the water without struggling and was making only those movements necessary to keep its head above water. A rat was judged to be swimming when it made active swimming motions, more than necessary to merely maintain its head above water (e.g., moving around in the cylinder). A rat was judged to be climbing when it made active movements with its forepaws in and out of the water, usually directed against the walls.
Statistical Analysis. The data points shown represent the mean±standard error of the mean (SEM). Analysis was performed using GraphPad Prism 6. Comparisons between groups were performed using the one-way analysis of variance (ANOVA), followed by Dunnett's test for comparisons to vehicle.
Additional disclosed compounds were tested in the forced swim test (FST) in rats according to the procedure described in Example 58 (compounds 18 and 19 administered in 10% DMSO in saline).

## CCN(CC)C(=O)[C@@H]1C=C2c3cccc4[nH]cc(c34)C[C@H]2N(CC2CC2)C1 [Compound 13, (6aR,9R)—N,N-diethyl-7-(cyclopropylmethyl)-4,6,6a,7,8,9-hexahydroindolo[4,3-fg]quinoline-9-carboxamide]
[1]
  Emax: 91.8%
[2]
  Emax: 92.6%
[3]
  half-life (t1/2): 3.7 min
[4]
  half-life (t1/2): 21.1 min
[5]
  Emax: 90.4%
[6]
  half-life (t1/2): 27.7 min
[7]
  Emax: 80.8%
[8]
  Emax: 83.1%

## [2H]C([2H])(c1cccc(OC)c1)N1C[C@H](C(=O)N(CC)CC)C=C2c3cccc4[nH]cc(c34)C[C@H]21 [Compound 68, (6aR,9R)—N,N-diethyl-7-((3-methoxyphenyl)methyl-d2)-4,6,6a,7,8,9-hexahydroindolo[4,3-fg]quinoline-9-carboxamide]
[9]; formation of 83 from 68 compared to formation from 18
  formation of metabolite 83: substantially attenuated compared to formation of 83 from 18
[9]; T = 0
  metabolised: 0.1%
[9]; T = 5
  metabolised: 2.9%
[9]; T = 15
  metabolised: 4.3%
[9]; T = 30
  metabolised: 5.7%
[9]; T = 45
  metabolised: 5.8%
[9]; T = 60
  metabolised: 6.2%
[10]
  Ki: 3.02 nM
[3]; mouse, microsomes, read-out: Intrinsic clearance (Clint)
  microsomal CLint: 436 µL/min/mg
[3]; mouse, microsomes, read-out: half-life (t1/2)
  half-life: 3.2 min
[4]; human, microsomes, read-out: Intrinsic clearance (Clint)
  microsomal CLint: 130 µL/min/mg
[4]; human, microsomes, read-out: half-life (t1/2)
  half-life: 10.6 min
[6]; rat, microsomes, read-out: Intrinsic clearance (Clint)
  microsomal CLint: 360 µL/min/mg
[6]; rat, microsomes, read-out: half-life (t1/2)
  half-life: 3.9 min

## CNCCCN1c2ccccc2CCc2ccccc21 [Desipramine, desipramine, reference compound]
[11]
  Time Immobile: 60.93 s
